From US8071760B2, “Boron-containing porphyrin compounds and their uses” (Board of Supervisors of Louisiana State University and …, priority 2005, dated 2011) come the findings set out here.

“Also recorded” adds a separate entry of the source. Marks after values point to notes of the source that are not given here.

The nature of series [1]: solubility in solvents and water. It is filed as physicochemical. From the text: Compound 18 was converted to the water-soluble TBP Compound 19 with tert-butylammonium fluoride in THF, followed by cation exchange.
Series [2] deals with human glioblastoma T98G cells. In words: Concentration-dependent cellular uptake. It is filed as cell-based. As to conditions: for dependence of uptake on concentration: up to 200 μM. The method, then: Human glioblastoma T98G cells and cervical carcinoma HEp2 cells were obtained from ATCC. Both cell lines were maintained in 50% α-MEM/advanced MEM, supplemented with 5% fetal bovine serum. Phosphate buffered saline (PBS), fetal bovine serum, and trypsin were purchased from Gibco; Cyquant reagent and Lysosensor were purchased from Molecular Probes, and Triton X-100 was purchased from Calbiochem. Microscopy was performed on a Zeiss Axiovert 200M inverted fluorescence microscope fitted with standard Texas Red and FITC filter sets (Chroma Technology Corp.). Images were acquired with a Zeiss Axiocam MRM CCD camera fitted to the microscope, and were pseudo-colored with Adobe Photoshop® CS version 8.0. […] All medium solutions were filter-sterilized ([…] pore size) prior to use. All data obtained in the FLUOstar plate reader was analyzed using Prism 3.0 graphing software.
Human T98G cells were sub-cultured on 96-well plates at 10,000 cells/100 μL α-MEM/advanced medium per well, and were incubated for 48 h. […] A standard curve for different cell numbers was obtained by placing 100,000, 80,000, 60,000, 40,000, 20,000, 10,000, and 0 cells in the wells, followed by incubation for 3 h. A standard graph was prepared from the wells with known cell numbers. Unknown cell numbers from the experiments were determined by first adding 100 μL/well of 5 μM stock solution of Cyquant reagent in PBS, and then reading the plate on a FLUOstar plate reader using 480 nm excitation and 520 emission filters. The same procedure was followed for determining the concentration-dependent cellular uptake of porphyrin 20, but using 570 nm excitation and 650 nm emission filters.

For series [3], the system named is BALB/c mice. In words: Animal toxicity (clinical signs, serum chemistry, histopathology). It is filed as in vivo. The conditions noted are these: for AP / Albumin / BUN / Bilirubin / Globulin / Glucose / Total Prot. / ALT / AST: serum, blood 48 h after administration, group mean; for ALT / AST: in U/L (unit assumed). On the procedure: Twelve groups of two BALB/c mice each, 4-6 weeks of age and weighing 12-24 g (mean=19 g), were used for toxicity studies. There were 8 female and 16 male mice. Mice in groups 1, 3, 5, 7, and 9 were administered TBP 19 once via i.p. injection, at increasing dosages: group 1 (20 mg/kg of a 2 mg/ml solution), group 3 (40 mg/kg of a 2 mg/ml solution), group 5 (80 mg/kg of a 4 mg/ml solution), group 7 (120 mg/kg of a 4 mg/ml solution), and group 9 (160 mg/kg of a 4 mg/ml solution). Mice in groups 2, 4, 6, 8, and 10 were administered porphyrin 20 once via i.p. injection at increasing dosages: group 2 (20 mg/kg of a 2 mg/ml solution), group 4 (40 mg/kg of a 2 mg/ml solution), group 6 (80 mg/kg of a 4 mg/ml solution), group 8 (120 mg/kg of a 4 mg/ml solution), and group 10 (160 mg/kg of a 4 mg/ml solution). Two groups of mice served as vehicle controls. Mice in group 11 received sterile 4% Cremophor EL (Fluka) in PBS and served as controls for mice receiving 20, 40, and 80 mg/kg compound; while mice in group 12 received 6% Cremophor EL and served as controls for mice receiving 120 and 160 mg/kg compound.
For each compound, groups were dosed sequentially and each group was evaluated daily for signs of toxicity, including hunched posture, rough hair coat, and decreased responsiveness. Mice were anesthetized with CO2 48 h after compound administration, and blood was collected by cardiocentesis for clinical chemistry evaluation. Serum chemistry was analyzed, including glucose, aspartate aminotransferase (AST), alanine aminotransferase (ALT), alkaline phosphatase (AP), bilirubin, total protein (TP), albumin, globulin, and blood urea nitrogen (BUN). The mice were exsanguinated and necropsies were performed. Tissues, including lung, kidney, thymus, heart, Harderian gland, spleen, stomach, small intestine and colon were fixed in 10% neutral buffered formalin. The fixed tissues were processed and examined by a board-certified pathologist.

In series [4] the test system is Human HEp2 cells. The experiment in a line: Intracellular localization (fluorescence microscopy, Lysosensor co-localization). It counts as cell-based. As to conditions: 50 μM, 24 h incubation, fluorescence pattern and overlay with Lysosensor; listed as TBP 19. On the procedure:
(§1) Human glioblastoma T98G cells and cervical carcinoma HEp2 cells were obtained from ATCC. Both cell lines were maintained in 50% α-MEM/advanced MEM, supplemented with 5% fetal bovine serum. Phosphate buffered saline (PBS), fetal bovine serum, and trypsin were purchased from Gibco; Cyquant reagent and Lysosensor were purchased from Molecular Probes, and Triton X-100 was purchased from Calbiochem. Microscopy was performed on a Zeiss Axiovert 200M inverted fluorescence microscope fitted with standard Texas Red and FITC filter sets (Chroma Technology Corp.). Images were acquired with a Zeiss Axiocam MRM CCD camera fitted to the microscope, and were pseudo-colored with Adobe Photoshop® CS version 8.0. Compounds 19 and 20 were dissolved in DMSO (Sigma-Aldrich) prior to being diluted into cell medium so that the final DMSO concentration never exceeded 1%. All medium solutions were filter-sterilized ([…] pore size) prior to use. All data obtained in the FLUOstar plate reader was analyzed using Prism 3.0 graphing software.
Human HEp2 cells were sub-cultured on Lab-Tek II chamber cover slips with α-MEM/advanced medium for 48 h. TBP 5 was added to each chamber to reach a final concentration of 50 μM. […] New medium containing 50 mM HEPES pH 7.4 was added, and the cells were examined immediately by fluorescence microscopy. […]

Series [5] deals with human glioblastoma T98G cells. The experiment in a line: Time-dependent cellular uptake. It counts as cell-based. As to conditions: 10 μM, FIG. 12. On the procedure:
as §1
Human T98G cells were sub-cultured and incubated for 48 h as otherwise described above. A filter-sterilized, 10 μM stock solution of TBP 19 in 1% DMSO/medium was added, and the cells were incubated for 24, 16, 8, 4, 2, 1, 0.5 and 0 h. […] Known and unknown concentrations of TBP 19 were determined as described above for the concentration-dependent uptake. […]

The mark [6] stands for this setting: T98G cells, 3 h exposure, FIG. 11.
[7] abbreviates: BALB/c mice, 20 mg/kg single i.p. injection.
Where [8] appears, read: BALB/c mice, 40 mg/kg single i.p. injection.
Setting [9] is: BALB/c mice, 80 mg/kg single i.p. injection.
Where [10] appears, read: BALB/c mice, 120 mg/kg single i.p. injection.
Where [11] appears, read: BALB/c mice, 160 mg/kg single i.p. injection.

As to “5,10,15,20-Tetra(4′-cobaltacarborane 4-hydroxyphenyl)porphyrin [Compound 13]”, the solubility in methanol result in series [1] is on record as “soluble”.
As to “5,10,15,20-Tetra(4′-cobaltacarboranepyridyl)porphyrin [Compound 5]”, the “solubility in polar organic solvents” value in series [1] (acetone, ethyl acetate, acetonitrile, DMF, and DMSO) was “highly soluble”. In addition, the solubility in methanol result in series [1] was “not”.
As to “5,10,15,20-Tetra[4-(nido-carboranyl)phenyl-tetrabenzoporphyrin [Compound 19]”, the “solubility in polar organic solvents” value in series [1] (such as acetone, methanol and DMSO) is listed as “highly soluble”. Besides, in series [1] (water), the solubility in water entry was “slightly soluble”. Further, in series [2] (setting [6]), the “concentration accumulated within cells, higher than porphyrin 20” value is on record as “approximately 30%” and the “dependence of uptake on concentration” value is “increased with increasing concentration, in an almost linear fashion”. Also, the “uptake in T98G cells in comparison with carboranylporphyrin 20” value in series [2] (in vitro, in words) was “significantly higher uptake”. The “toxicity to BALB/c mice” value in series [3] (160 mg/kg, single i.p. injection, 4 mg/mL, listed as TBP 19) was “non-toxicity; also recorded: non-toxic”. Moreover, the signs of toxicity result in series [3] (BALB/c mice, 20-160 mg/kg single i.p. injection, daily evaluation) is listed as “No signs of toxicity”. For the same substance, the “serum chemistry changes attributable to compound” value in series [3] (BALB/c mice, i.p., maximum 160 mg/kg) was “No serum chemistry changes were observed”. Moreover, in series [3] (BALB/c mice, single i.p. injection up to 160 mg/kg), the “clinical, biochemical, or histopathological effects attributable to administration” value is reported as “No clinical, biochemical, or histopathological effects were observed”. The “toxicity compared with other negatively charged carboranyl-containing porphyrins (BOPP, MnBOPP, BTPP, NiNTCP-H, ZnDPE, NiDPE)” value in series [3] (mice, preliminary results) was “significantly less toxic”. Also, in series [3] (setting [7]), the AP is recorded as 189.5^a,c, the Albumin amounted to 2.85 g/dL, the BUN is 28 mg/dL and the Bilirubin was 0.15 mg/dL. Further, in series [3] (setting [7]), the Globulin is recorded as 1.8^a, the Glucose was 153.5^a, the Total Prot. amounted to 4.65 g/dL and the ALT worked out at 151.5. In series [3] (setting [7]), this substance had an AST of 177.5. Moreover, in series [3] (setting [8]), the AP is reported as 201.0^b,c, the Albumin was found to be 2.8 g/dL, the BUN was determined as 27 mg/dL and the Bilirubin stood at 0.2 mg/dL. In series [3] (setting [8]), the Globulin is listed as 1.9^a, the Glucose is listed as 219.5^c, the Total Prot. was 4.7 g/dL and the ALT stood at 96.5. The AST in series [3] (setting [8]) stood at 455.5. In series [3] (setting [9]), the AP is listed as 138.0^a, the Albumin amounted to 2.75 g/dL, the BUN was 25.5 mg/dL and the Bilirubin was 0.2 mg/dL. In addition, in series [3] (setting [9]), the Globulin is reported as 2.35^b, the Glucose was 229.5^c, the Total Prot. stood at 5.1 g/dL and the ALT was determined as 120.0. Further, in series [3] (setting [9]), the AST is 454.5. In addition, in series [3] (setting [10]), the AP is on record as 161.0^a, the Albumin was 2.75^a, the BUN was 15.5^a,b and the Bilirubin was determined as 0.2 mg/dL. Also, in series [3] (setting [10]), the Globulin is reported as 2.35^a, the “Total Prot.” value was 5.1^a, the ALT is recorded as 29.0 and the AST came to 73.0. This substance came in with a Glucose in series [3] (BALB/c mice, 120 mg/kg single i.p. injection, in mg/dL (unit assumed)) of 224.5. In addition, in series [3] (setting [11]), the AP is recorded as 223.5^b, the BUN is 22.5^b,c, the Bilirubin was 0.25 mg/dL and the Globulin is reported as 1.95^b. Besides, in series [3] (setting [11]), the “Total Prot.” value was 4.35^b, the ALT was 206.0 and the AST was 498.0. Further, the Albumin entry in series [3] (BALB/c mice, 160 mg/kg single i.p. injection, 160 mg/kg) is given as “lower than for other mice”. In series [3] (BALB/c mice, 160 mg/kg single i.p. injection, in mg/dL (unit assumed)), this substance registered a Glucose of 172.0. Also, in series [3] (BALB/c mice, 160 mg/kg single i.p. injection, listed as TBP 5, 160 mg/kg), the Albumin is reported as 2.4^b. Besides, the “site of intracellular localization” value in series [4] was “localization in the cellular lysosomes”. Moreover, the “amount within T98G cells relative to Compound 20” value in series [5] (after 24 h) is given as “approximately 3 times”. In addition, the “time-dependent uptake compared with porphyrin 20” value in series [5] (all times 0-24 h) was “taken up faster and to a greater extent”.
On to “5,10,15,20-Tetra[4-(o-carboranyl)phenyl-tetrabenzoporphyrin [Compound 18]”, for which the “solubility in organic solvents” value in series [1] (such as dichloromethane and acetone) is “soluble”.
On to “tetra(nido-carboranylphenyl)porphyrin [Compound 20, reference compound]”, for which, in series [2] (setting [6]), the “dependence of uptake on concentration” value is “increased with increasing concentration, in an almost linear fashion”.
